Measurements from patent publication US20260183302A1, “PDK1 REGULATORY COMPOUND AND COMPOSITION CONTAINING THE SAME” (PROVIBIO CO., LTD., priority 2024, published 2026).
“Also recorded” adds a separate entry of the source.

Assays:
[1] = tested on: MRL/lpr mice with hair loss in the facial region; assay: Hair loss treatment and hair follicle Ki-67 IHC in MRL/lpr mice; type: in vivo; conditions: 41-week-old female MRL/lpr; GO15F (30 mg/kg), GO48 (1 mg/kg), GO88 (0.5 mg/kg) intraperitoneal once daily
Protocol: Additionally, in 41-week-old female MRL/Ipr mice, the compounds GO15F (30 mg/kg), GO48 (1 mg/kg), and GO88 (0.5 mg/kg) were administered intraperitoneally once daily.
To confirm the proliferative activity of hair follicle cells in the skin tissue of these mice, the mice were sacrificed 14 days after administration of the compounds of the present invention, and Ki-67 immunohistochemistry (IHC) was performed.
For this purpose, the excised skin tissue was fixed in formalin, embedded in paraffin blocks, and stained with a Ki-67-specific antibody on tissue sections prepared as slides.

[2] = tested on: PDK1 phosphorylation in SU-DHL-8 cells; assay: PDK1 phosphorylation inhibition by flow cytometry (pPDK1-PE) in SU-DHL-8 cells; type: cell-based, human; conditions: SU-DHL-8, 24 hours, vs control group, listed as GO48
Protocol: After stabilizing the cells, the compound of the present invention was added, and the cells were cultured for 24 hours.
After drug treatment, the cells were harvested, and the Fc receptor blocking process was performed. The cells were then fixed and permeabilized using the Intracellular Staining Kit (Cat. No. BD554715) from BD Biosciences. Subsequently, the intracellular pPDK1 was stained using the pPDK1-PE fluorescently labeled antibody (BD Biosciences).
Referring to the figure, the vertical axis represents the phosphorylation level of PDK1 (phospho-PDK1 expression level), and the horizontal axis denotes the concentration-dependent treatment conditions of each compound.

psoriasis-induced mice = assay: In vivo psoriasis model (Aldara cream, Imiquimod); set-up: species or system BALB/c mice
Protocol: To verify the therapeutic effect of the compound according to the present invention on psoriasis, a psoriasis animal model was established as follows, and the compound according to the present invention was administered to evaluate the alleviation of skin lesions and changes in immune cell patterns.
For the establishment of the psoriasis animal model, BALB/c mice (7 weeks old, female, 20 g) were purchased from HanabioTech Co., Ltd. and acclimatized to the rearing environment for one week.
Subsequently, the hair on the mouse back was shaved using a hair removal device for the first time, and then completely shaved using a depilatory cream (Nicrin Cream (80% thioglycolic acid, Il Dong Pharmaceutical)) for the second time. The mice were then kept for 24 hours to confirm the absence of skin damage.
To verify the psoriasis prevention and therapeutic effects of the compounds according to the present invention, the following experimental groups were established:
[Normal control group (Normal, Not Treatment), psoriasis-induced control group (Psoriasis, Not Treatment), psoriasis-induced vehicle control group (Psoriasis, Vehicle), experimental group (GO85, GO86, GO88, GO89, PBK-2024-010, PBK-2024-026, PBK-2025-002, PBK-2025-004, PBK-2025-016, PBK-2025-017, PBK-2025-023)]. […]
Body weights of mice in each group were measured on days 1, 4, and 8 after the start of injection and psoriasis induction. […]
To evaluate the therapeutic effect in a psoriasis-induced mouse model, the PASI (Psoriasis Area and Severity Index) score was measured.
The PASI score is based on three criteria: erythema, scaling, and skin thickness, each scored from 0 (none) to 4 (severe). […]
Observations were conducted daily at the same time, and the same observer visually assessed each criterion and recorded the scores, with the results presented in FIG. 13. […]
All samples were measured in duplicate, and the absorbance was measured at 450 nm using a microplate reader.

[3] = tested on: HCT-116 colon cancer cell lines; assay: Matrigel Invasion Assay on HCT-116 colon cancer cell line; type: cell-based, human; conditions: HCT-116, Matrigel, 24 hours treatment, vs DMSO
Protocol: To evaluate the metastasis inhibitory efficacy of the compounds of the present invention on HCT-116 colon cancer cell lines, an Invasion Assay using Matrigel was performed to assess the cells' invasion ability.
First, Matrigel was thawed on ice in RPMI-1640 medium without FBS, then diluted with DMEM at a ratio of 1:20.
The diluted Matrigel mixture was applied to the upper chamber at 100 μl per well, and 750 μl of RPMI-1640 without FBS was added to the lower chamber.
The plates were then incubated at 37° C. for 1 hour to allow the Matrigel to solidify.
After coating, the Matrigel mixture in the upper chamber was removed using a pipette, and the chamber was washed with RPMI without FBS.
Human-derived colorectal cancer cell line HCT-116, obtained from the Korean Cell Bank, was cultured in RPMI-1640 medium containing 10% FBS.
Following stabilization, the cells were harvested using Trypsin-EDTA treatment, centrifuged at 1,200 rpm for 3 minutes, the supernatant was removed, and the cells were resuspended in the same medium, the medium in the lower chamber was replaced with 750 μl of RPMI-1640 supplemented with 10% FBS, and the cells were seeded into the upper chamber at a density of 5×10^4 cells/well.
The cells were cultured for 24 hours after attachment, and then the compounds according to the present invention (G078, G085, G086, G088, G089, PBK-2024-010, PBK-2025-010, PBK-2025-013, PBK-2025-016) and the control substance DMSO were diluted and added to the upper chamber after removing the medium.
Additionally, the medium in the lower chamber was replaced with fresh RPMI-1640 containing FBS, and the culture was continued.
After an additional 24 hours, the medium was removed, and 1 ml of methanol was added for 10 minutes to fix the cells.
Subsequently, 1 ml of Hematoxylin was added and reacted for 5 minutes, followed by 1 ml of Eosin, which was reacted for 30 seconds. The sample was then washed with distilled water (DW).
After staining was complete, any remaining cells in the upper chamber were removed. Finally, the infiltrated cells were observed under a microscope, photographed, and the degree of infiltration was analyzed.

Row | SMILES | hair growth on the facial region [1] | phospho-PDK1 expression level [2] | efficacy in improving dermatological symptoms (psoriasis-induced mice) | number of infiltrated cells (invasion) [3]
1 | Nc1ncccc1C(=O)NCCCCCCCCCCCCN1CCOCC1 [Compound 2, 2-amino-N-(12-morpholin-4-yl-dodecyl)-nicotinamide] | hair growth was confirmed | stronger PDK1 inhibition; also recorded: high inhibitory effects even at low concentrations | – | –
2 | Nc1nc(NC(=O)CCCCCCCCCCCCN2CCN(CCO)CC2)nc2nc[nH]c12 [Compound 15, 12-[4-(2-hydroxyethyl)piperazin-1-yl]dodecyl-N-(6-aminopurine-2-yl) carboxamide] | – | – | excellent efficacy in improving dermatological symptoms | reduction in the number of infiltrated cells
